Assay results published in paper PMC9220408, “Enhanced Antibacterial Activity of Dermaseptin through Its Immobilization on Alginate Nanoparticles—Effects of Menthol and Lactic Acid on Its Potentialization” (Antibiotics, 2022).
Ends that are not written are not given here.

Experiments:
E. coli 184 [1] = tested on: E. coli 184
Method: (§1) The minimum inhibitory concentration (MIC) of the aforementioned formulations was determined in triplicate in 96-well microtiter plates using the broth microdilution method. Fresh colonies of E. coli were sub-cultured in Mueller–Hinton broth (Sigma-Aldrich) and were grown at 37 °C overnight on a rotary shaker at 160 rpm. […] The plates were incubated for 24 h at 37 °C, and inhibition of growth was measured at 600 nm with a spectrophotometer ELx808^tm (BioTek, Winoosky, VT, USA).
The ability of these new formulations to resist the conditions of the gastrointestinal tract (GIT) environment was determined as previously described. […]
To this end, we used pepsin, a digestive enzyme from the stomach, and active at pH 3, trypsin and chymotrypsin, which are synthesized in the pancreas and secreted in the small intestine, active between pH 6 and pH 8.

E. coli 184 [2] = format: cell-based, Escherichia coli; conditions: broth microdilution, Mueller-Hinton broth, 24 h, 37 °C, OD 600 nm, triplicate; MIC as lowest concentration of DRS-B2 peptide; colistin-resistant strain (mcr-1)
Method: (§2) The Escherichia coli (E. coli) strains used in this study included E. coli ATCC 8739 and E. coli 184, which is resistant to colistin. […] E. coli strains were grown at 37 °C in Brain Heart Infusion (BHI) medium (Sigma-Aldrich, St. Louis, MA, USA).
as §1

E. coli ATCC 8739 = format: cell-based, Escherichia coli; conditions: broth microdilution, Mueller-Hinton broth, 24 h, 37 °C, OD 600 nm, triplicate; MIC as lowest concentration of DRS-B2 peptide; colistin-sensitive strain
Method: as §2, §1

[3] = tested on: CHO (Chinese Hamster Ovary) cells; conditions: DRS-B2 at 39.7 µg/mL (10 µM); cited from earlier work
[4] = Size (DLS) and zeta potential; format: physicochemical; conditions: pH 6.3; Alg NPs 500 µg/mL, DRS-B2 40 µg/mL
Method: The concentration of Alg NPs has been set to 500 µg/mL in order to allow a good dispersion and avoid any aggregation or sedimentation that could interfere with the adsorption. […]

IPEC-1 cells = assay: Cytotoxicity assay (CCK8); conditions: 24 h, 37 °C, CCK8, % of non-treated cells
Method: The cytotoxicity assay was performed as previously reported. Briefly, human colon carcinoma (HT29) and porcine intestinal (IPEC-1) cells (Sigma-Aldrich) were cultivated in Dulbecco’s Modified Eagle Medium (DMEM, Gibco, Thermo Fisher, Waltham, MA, USA) in 96-well-tissue culture plates for 48–72 h at 37 °C, in atmosphere containing 5% CO2, until the formation of a continuous confluent cell culture on the bottom of each well. […] The required concentrations were prepared in DMEM without antibiotics and serum and were added to the HT29/IPEC-1 cells in the wells, after washing with the same medium. The treated cells were then incubated for 24 h at 37 °C, in atmosphere containing 5% CO2. To assess the cell viability of the treated HT29/IPEC-1 cells, CCK8 assay (Dojindo Molecular Technologies, Tokyo, Japan) was realized according to the supplier recommendations. An amount of 150 µL of DMEM containing 7.5 µL of CCK-8 reagents were added to each well, and cells were incubated for 2 h. Plates were read at 450 nm in a microplate reader spectrophotometer (Xenius, Safas, Monaco).

[5] = tested on: MCF-7 (breast cancer) cells; conditions: MCF-7, inhibition of thymidine incorporation; cited from earlier work
Text: Of note, though many peptides endowed with biological functions, such as inhibitory activities, could be hemolytic, their combination with nanoparticles frequently allows them to discard this adverse trait. Charpentier et al. focused on the cytotoxicity of dermaseptin B3 and B4 on mammalian cells. These authors evaluated dermaseptin B3 and B4 abilities to inhibit thymidine incorporation into transformed human MCF-7 (breast cancer) cells. The results obtained unveiled 50% cytotoxicity when DRS-B3 was used at 27.8 µg/mL (10 µM). However, Galanth et al. reported that wh ...

GLWSKIKEVGKEAAKAAAKAAGKAALGAVSEAV-NH2 [DRS-B2, Dermaseptin B2]
MICs of DRS-B2, Treatment with Pepsin (E. coli 184 [1]; 30 min at pH 3 with pepsin (15 U/mL) and then 2 h at pH 6, 20 mM PBS, 39 °C at 140 rpm): ≥10 µg/mL
MICs of DRS-B2, Treatment with Digestive Enzymes (E. coli 184 [1]; 30 min at pH 3 with pepsin (15 U/mL) and then 2 h at pH 6 with trypsin (40 U/µL) + chymotrypsin (5 U/mL), 20 mM PBS, 39 °C at 140 rpm): ≥10 µg/mL
MICs of DRS-B2, Treatment with pH Variation Only (E. coli 184 [1]; incubation 30 min at pH 3 and then 2 h at pH 6, 20 mM PBS, 39 °C at 140 rpm, no enzymes): 10 µg/mL
MICs of DRS-B2, Without Treatment (E. coli 184 [1]; no physical or enzymatic treatment): 7.5 µg/mL
MIC E. coli 184 (E. coli 184 [2]): 7.5 µg/mL
MIC E. coli ATCC8739 (E. coli ATCC 8739): 3.75 µg/mL
toxic effect on CHO cells (in words) [3]: not any toxic effect
Zeta Potential (ζ) [4]: +23 mV
percentage of survival of IPEC-1 cell line (IPEC-1 cells; DRS-B2 at 30 µg/mL (alone or adsorbed on Alg NPs)): 87%
percentage of survival of IPEC-1 cell line (IPEC-1 cells; DRS-B2 at 125 µg/mL (alone or adsorbed on Alg NPs)): 68%

dermaseptin B3 [DRS-B3]
concentration giving 50% cytotoxicity [5]: 27800 ng/mL
